From patent US10221174B2, “N-(phenylsulfonyl)benzamides and related compounds as BCL-2 inhibitors” (THE REGENTS OF THE UNIVERSITY OF MICHIGAN, priority 2016, dated 2019)
Where two headings read alike, the source gives them in different places.

Experiments:
Pharmacokinetics in rats = format: in vivo
Protocol: The pharmacokinetics of ABT-199 and representative Compounds of the Disclosure were evaluated in rats at an IV dose of 2 mg/kg and an oral dose of 20 mg/kg.

RS4;11 cells = assay: RS4;11 cell viability, CCK-8 assay; format: cell-based; settings: Homo sapiens, RS4-11, 96 h, CCK-8, 4 days, read-out: RS4, 11 IC50 (Bcl-2 dependent)
Protocol: RS4;11 cells were obtained from American Type Culture Collection (ATCC). They were used within three months of thawing fresh vials. Cells were maintained in the recommended culture medium with 10% FBS at 37° C. and an atmosphere of 5% CO2.
The effect of representative Compounds of the Disclosure on cell viability was determined using Cell Counting Kit-8 (CCK-8) assay (Dojindo, Rockville, Md.) according to the manufacturer's instructions. 200 μL of a RS4;11 cell suspension (10000 cells/well) in culture medium were seeded into 96-well plates and cultured overnight. Each tested compound was serially diluted in culture medium, and 20 μL of the compound dilution was added to the corresponding well of the cell plate. After the addition of the tested compound, the cells were incubated at 37° C. in an atmosphere of 5% CO2 for 4 days. At the end of 4 days, 10 μL of CCK-8 solution was added to each well of the plate and incubated for 1-4 hours. The plates were read at 450 nm on the microplate spectrophotometer (Epoch2, BioTek). The readings were normalized to the vehicle cells, and the IC50 was calculated by nonlinear regression analysis using GraphPad Prism 5 software.

MV4;11 cell line = assay: MV4;11 inhibition; format: cell-based

Row | Structure (SMILES) | IC50 (RS4;11 cells) | IC50 (MV4;11 cell line; Homo sapiens, MV4-11) | further results
1 | CC1(C)CCC(CN2CCN(c3ccc(C(=O)NS(=O)(=O)c4ccc(NCC5CCOCC5)c([N+](=O)[O-])c4)c(Oc4cnc5[nH]ccc5c4)c3)CC2)=C(c2ccc(Cl)cc2)C1 [ABT-199, Venetoclax, reference compound] | – | – | AUC0-∞ IV (Pharmacokinetics in rats; IV 2 mg/kg): 5446 n · gh/mL; AUC0-∞ PO (Pharmacokinetics in rats; oral 20 mg/kg): 20812 n · gh/mL; F(AUC0-t) (Pharmacokinetics in rats; oral 20 mg/kg vs IV 2 mg/kg): 38.2%; MRT inf (Pharmacokinetics in rats; rat, in vivo, IV 2 mg/kg): 1.23 h; AUC(0-t) (Pharmacokinetics in rats; rat, in vivo, IV 2 mg/kg, read-out: AUC0-t IV): 5440 ng·h/mL; clearance (Pharmacokinetics in rats; rat, in vivo, IV 2 mg/kg, read-out: CL (iv) (converted)): 6.57 mL/min/kg; Cmax (Pharmacokinetics in rats; rat, in vivo, IV 2 mg/kg, read-out: Cmax IV): 8740 ng/mL; Tmax (Pharmacokinetics in rats; rat, in vivo, IV 2 mg/kg, read-out: Tmax IV): 0.083 h; Vd (Pharmacokinetics in rats; rat, in vivo, IV 2 mg/kg, read-out: Vss (iv)): 0.496 L/kg; half-life (Pharmacokinetics in rats; rat, in vivo, IV 2 mg/kg, read-out: t1/2 IV (converted)): 4.32 h; AUC(0-t) (Pharmacokinetics in rats; rat, in vivo, oral 20 mg/kg, read-out: AUC0-t PO): 20800 ng·h/mL; Cmax (Pharmacokinetics in rats; rat, in vivo, oral 20 mg/kg, read-out: Cmax PO): 6000 ng/mL; Tmax (Pharmacokinetics in rats; rat, in vivo, oral 20 mg/kg, read-out: Tmax PO): 1.67 h; half-life (Pharmacokinetics in rats; rat, in vivo, oral 20 mg/kg, read-out: t1/2 PO (converted)): 3.22 h
2 | O=C(NS(=O)(=O)c1ccc(NC[C@@H]2COCCO2)c([N+](=O)[O-])c1)c1ccc(C2=CCN(CC3=C(c4ccc(Cl)cc4)CC4(CC3)COC4)CC2)cc1Oc1cnc2[nH]ccc2c1 [Cpd. No. 5, (R)-N-((4-(((1,4-dioxan-2-yl)methyl)amino)-3-nitrophenyl)sulfonyl)-2-((1H-pyrrolo[2,3-b]pyridin-5-yl)oxy)-4-(1-((6-(4-chlorophenyl)-2-oxaspiro[3.5]non-6-en-7-yl)methyl)-1,2,3,6-tetrahydropyridin-4-yl)benzamide] | 22 nM | – | –
3 | O=C(NS(=O)(=O)c1cc([N+](=O)[O-])n(CC2CCOCC2)c1)c1ccc(N2CCN(CC3=C(c4ccc(Cl)cc4)CC4(CCC4)CC3)CC2)cc1Oc1cnc2[nH]ccc2c1 [Cpd. No. 25, 2-((1H-pyrrolo[2,3-b]pyridin-5-yl)oxy)-4-(4-((6-(4-chlorophenyl)spiro[3.5]non-6-en-7-yl)methyl)piperazin-1-yl)-N-((5-nitro-1-((tetrahydro-2H-pyran-4-yl)methyl)-1H-pyrrol-3-yl)sulfonyl)benzamide] | 1090 nM | 5150 nM | –
4 | O=C(NS(=O)(=O)c1cc(F)c(NC[C@H]2COCCO2)c([N+](=O)[O-])c1)c1ccc(N2CCN(CC3=C(c4ccc(Cl)cc4)CC4(CCC4)CC3)CC2)cc1Oc1cnc2[nH]ccc2c1 [Cpd. No. 40, (S)-N-((4-(((1,4-dioxan-2-yl)methyl)amino)-3-fluoro-5-nitrophenyl)sulfonyl)-2-((1H-pyrrolo[2,3-b]pyridin-5-yl)oxy)-4-(4-((6-(4-chlorophenyl)spiro[3.5]non-6-en-7-yl)methyl)piperazin-1-yl)benzamide] | 1.4 nM | 2.46 nM | –
5 | O=C(NS(=O)(=O)c1cc([N+](=O)[O-])c(NC[C@H]2COCCO2)cc1F)c1ccc(N2CCN(CC3=C(c4ccc(Cl)cc4)CC4(CCC4)CC3)CC2)cc1Oc1cnc2[nH]ccc2c1 [Cpd. No. 44, (S)-N-((4-(((1,4-dioxan-2-yl)methyl)amino)-2-fluoro-5-nitrophenyl)sulfonyl)-2-((1H-pyrrolo[2,3-b]pyridin-5-yl)oxy)-4-(4-((6-(4-chlorophenyl)spiro[3.5]non-6-en-7-yl)methyl)piperazin-1-yl)benzamide] | 7160 nM | – | –
6 | O=C(NS(=O)(=O)c1ccc(NC[C@@H]2COCCO2)c([N+](=O)[O-])c1)c1ccc(N2CCN(CC3=C(c4ccc(Cl)cc4)CC4(CC3)COC4)CC2)cc1Oc1cnc2[nH]ccc2c1 [compound 8, (R)-N-((4-(((1,4-dioxan-2-yl)methyl)amino)-3-nitrophenyl)sulfonyl)-2-((1H-pyrrolo[2,3-b]pyridin-5-yl)oxy)-4-(4-((6-(4-chlorophenyl)-2-oxaspiro[3.5]non-6-en-7-yl)methyl)piperazin-1-yl)benzamide] | 3.7 nM | – | –
7 | O=C(NS(=O)(=O)c1ccc(NCC2CCOCC2)c([N+](=O)[O-])c1)c1ccc(C2=CCN(CC3=C(c4ccc(Cl)cc4)CC4(CC3)COC4)CC2)cc1Oc1cnc2[nH]ccc2c1 [compound 9, 2-((1H-pyrrolo[2,3-b]pyridin-5-yl)oxy)-4-(1-((6-(4-chlorophenyl)-2-oxaspiro[3.5]non-6-en-7-yl)methyl)-1,2,3,6-tetrahydropyridin-4-yl)-N-((3-nitro-4-(((tetrahydro-2H-pyran-4-yl)methyl)amino)phenyl)sulfonyl)benzamide] | 28 nM | – | –
8 | O=C(NS(=O)(=O)c1ccc(NC[C@@H]2COCCO2)c([N+](=O)[O-])c1)c1ccc(N2CCN(CC3=C(c4ccc(Cl)cc4)CC4(CCC4)CC3)CC2)cc1Oc1cnc2[nH]ccc2c1 [compound 13, (R)-N-((4-(((1,4-dioxan-2-yl)methyl)amino)-3-nitrophenyl)sulfonyl)-2-((1H-pyrrolo[2,3-b]pyridin-5-yl)oxy)-4-(4-((6-(4-chlorophenyl)spiro[3.5]non-6-en-7-yl)methyl)piperazin-1-yl)benzamide] | 2.8 nM | – | –
9 | COCCOCCn1nc2cc(S(=O)(=O)NC(=O)c3ccc(N4CCN(CC5=C(c6ccc(Cl)cc6)CC6(CCC6)CC5)CC4)cc3Oc3cnc4[nH]ccc4c3)cc([N+](=O)[O-])c2c1F [compound 22, 2-((1H-pyrrolo[2,3-b]pyridin-5-yl)oxy)-4-(4-((6-(4-chlorophenyl)spiro[3.5]non-6-en-7-yl)methyl)piperazin-1-yl)-N-((3-fluoro-2-(2-(2-methoxyethoxy)ethyl)-4-nitro-2H-indazol-6-yl)sulfonyl)benzamide] | 20 nM | 58.9 nM | –
10 | O=C(NS(=O)(=O)C1=CC2C(=O)N(C3CCOCC3)CC2C([N+](=O)[O-])=C1)c1ccc(N2CCN(CC3=C(c4ccc(Cl)cc4)CC4(CCC4)CC3)CC2)cc1Oc1cnc2[nH]ccc2c1 (stereo not drawn) [compound 23, 2-((1H-pyrrolo[2,3-b]pyridin-5-yl)oxy)-4-(4-((6-(4-chlorophenyl)spiro[3.5]non-6-en-7-yl)methyl)piperazin-1-yl)-N-((7-nitro-3-oxo-2-(tetrahydro-2H-pyran-4-yl)-2,3,3a,7a-tetrahydro-1H-isoindol-5-yl)sulfonyl)benzamide] | 19 nM | 54.6 nM | –
11 | O=C(NS(=O)(=O)c1cc([N+](=O)[O-])n(CCC2CCOCC2)c1)c1ccc(N2CCN(CC3=C(c4ccc(Cl)cc4)CC4(CCC4)CC3)CC2)cc1Oc1cnc2[nH]ccc2c1 [compound 24, 2-((1H-pyrrolo[2,3-b]pyridin-5-yl)oxy)-4-(4-((6-(4-chlorophenyl)spiro[3.5]non-6-en-7-yl)methyl)piperazin-1-yl)-N-((5-nitro-1-(2-(tetrahydro-2H-pyran-4-yl)ethyl)-1H-pyrrol-3-yl)sulfonyl)benzamide] | – | 243000 nM | –
12 | O=C(NS(=O)(=O)c1ccc(NC[C@H]2COCCO2)c([N+](=O)[O-])c1)c1cc(F)c(N2CCN(CC3=C(c4ccc(Cl)cc4)CC4(CCC4)CC3)CC2)cc1Oc1cnc2[nH]ccc2c1 [compound 26, (S)-N-((4-(((1,4-dioxan-2-yl)methyl)amino)-3-nitrophenyl)sulfonyl)-2-((1H-pyrrolo[2,3-b]pyridin-5-yl)oxy)-4-(4-((6-(4-chlorophenyl)spiro[3.5]non-6-en-7-yl)methyl)piperazin-1-yl)-5-fluorobenzamide] | – | – | IC50 (MV4;11 cell line): 6710 nM
13 | O=C(NS(=O)(=O)c1ccc(NCC2CCOCC2)c([N+](=O)[O-])c1)c1ccc(N2CCN(CC3=C(c4ccc(Cl)cc4)CC4(CCC4)CC3)CC2)nc1Oc1cnc2[nH]ccc2c1 [compound 32, 2-((1H-pyrrolo[2,3-b]pyridin-5-yl)oxy)-6-(4-((6-(4-chlorophenyl)spiro[3.5]non-6-en-7-yl)methyl)piperazin-1-yl)-N-((3-nitro-4-(((tetrahydro-2H-pyran-4-yl)methyl)amino)phenyl)sulfonyl)nicotinamide] | 1380 nM | – | –
